Results: patent publication US11993594B2, “IRAK inhibitors and method for making and using” (Rigel Pharmaceuticals, Inc., priority 2016, dated 2024)
Read-outs that look alike come from different tables or passages of the source.

How the values were obtained:
[1] = system: LPS induced IL-23 (p19/p40) in DC cells; assay: IL23-p19 ELISA, dendritic (DC) cells differentiated from human PBMC, LPS stimulated; assay type: cell-based; settings: LPS 1 μg/ml, 18 hours, 10 pt
Experimental: Compound Screening Using DC Cells
Human PBMC cells (400 million) obtained from the vendor were transferred into a T-175 flask containing 15 ml RPMI media (10% FBS) and incubate for 2 hours at 37° C. After 2 hours, the media including floating cells was aspirated out carefully and 12 ml of fresh RPMI media (10% FBS) containing GMCSF (100 ng/ml) and IL4 (20 ng/ml) was added, and the flask was kept in a 37° C. incubator for 7 days.
After 3 days, fresh GMCSF (100 ng/ml) and IL4 (20 ng/ml) were added to the flask and the incubation continued. After 7 days, the fully differentiated cells were harvested by spinning down (1200 rpm/5 min) and aspirating the media. The cells were suspended in fresh RPMI media (10% FBS) containing 50 ng/ml IFNγ (1000 U/ml) and then plated (50K/well in 100 μl) onto a white clear bottom 96 well plate and left in a 37° C. incubator for 24 hours.
After 24 hours incubation, 100 μl of RPMI media was added containing 2× concentrated test compound per well to the above cell-culture media (final concentration becomes 1×) and the plates were pre-incubated for 1 hour at 37° C. before stimulating with LPS.
After 1 hour compound pre-incubation, 10 μl per well of 20× concentrated LPS solution in RPMI media was added to give a final concentration of 1 μg/ml. The mixture was shaken and incubated the plates at 37° C. for an additional 18 hours.
155 μl of the supernatant was harvested from each well carefully (without the tip touching the bottom of the well) and to the remaining 50 μl/well of the cell culture plate was added 50 μl of Cell Titer Glo reagent. The mixture was incubated for 1-2 minutes on a shaker and the plate was read for luminescence intensity to determine the compound cytotoxicity. The cell culture supernatant collected above was used to carry out IL23 ELISA (65 μl—Supernatant) and IL10 ELISA (90 μl—Supernatant) as described below.
Human IL-23 (p19/p40) ELISA Protocol (e-Biosciences)
To 10.5 ml PBS add 50 μl of anti-IL23 (p19) was added capture antibody (2.5 μg/ml). The mixture was mixed well and 100 μl of the coating solution was added to each well of the 96 well white plates from Pierce. The wells were covered and incubated overnight at 4° C.
The anti-IL23 (p19)-antibody-coated plates were washed 2× using TBST (use plate washer) and blocked using 200 μl of 0.5% Casein for 1.5 to 2 hours at room temperature with shaking.
The plates were washed 2× using TBST and the supernatant was transferred (65 μl/well) to the above pre-blocked/IL23(p19)-antibody-coated 96 well plate, and incubated at room temperature for 1.5 hours with shaking.
The plates were washed 4× using TBST (plate washer) and 100 μl/well detection antibody solution prepared from 2 μl of biotin labeled anti-IL-12 (p40/p70) antibody in 11 ml 1% BSA/PBS solution (1-5000 dilution) was added. The plates were incubated for 1 hour with shaking at Room temperature.
Again, the plates were washed 4× with TBST and 100 μl of HRP labeled Streptavidin (R&D Systems) solution (10 μl/10 ml 1% BSA solution) was added, and the plates were incubated at room temperature for another 45 minutes with shaking.
After 45 minutes, the plates were washed with TBST 4× and 100 μl/well Super Signal ELISA Pico Chemiluminescent Substrate from Pierce (3.5 ml A+3.5 ml B+3.5 ml MQ water) was added. The plates were shaken for 1-2 minutes then read on a plate reader. […]

[2] = system: LPS Induced IL23p19 in THP-1 Cells; assay: LPS Induced IL23p19 in THP-1 Cells (with IFNγ Primed) Assay; assay type: cell-based, human; settings: THP-1 cells primed with IFNγ 50 ng/mL, LPS 1 ug/mL, 18 hours, 10 pt, read-out: IL23-p19 ELISA, THP1-IFNγ, LPS, 10 pt EC50
Source text: LPS Induced IL23p19 in THP-1 Cells (with IFNγ Primed) Assay
THP-1 Cells (ATCC, Cat #TIB-202), Dimethyl Sulfoxide (DMSO) (Sigma-Aldrich, Cat #D2650), RPMI 1640 (Cellgro, Cat #10-040-CM), Fetal Bovine Serum (Sigma, Cat #F4135), Albumin From Bovine Serum (BSA) (Sigma-Aldrich, Cat #A7906), LPS (Serotype K-235, Sigma, Product Number L 2143), IFNγ (Peprotech, Cat #300-02) Capture antibody: Human IL-23p19 ELISA (e-Bioscience, Cat. #14-7238-85), Detection antibody: Primary Mouse Biotinylated anti-human IL-12(p40/p70) (e-Bioscience, Cat. #13-7129-85), Secondary HRP-conjugated Streptavidin (R&D Systems, Cat #DY998), 1×PBST Washing Buffer (PBS-Tween tablet) (VWR International, Cat #80058-558), ELISA Blocking Buffer (PBS with 1% BSA), ELISA Dilution Buffer (PBS with 1% BSA), 384 Well Flat-Bottom, MaxiSorp Black Immuno Plates (Thermo Scientific, Cat #12-565-346), 384 Well Flat-Bottom, White Tissue Culture Plates (Thermo Scientific, Cat #12-565-343), Super Signal ELISA Pico Chemiluminescent Substrate (Thermo Scientific, Cat #37070), Cell Titer Glo reagent (Promega, Cat #G7573), Positive control, IKK2VI inhibitor (Calbiochem, Cat #401483), AquaMax 4000 plate washer (Molecular Devices), Luminometer, Wallac Victor2 1420 Multilabel Counter.
On day 1, 50K/well THP-1 cells were seeded and primed with IFNγ (50 ng/mL) in 384-well plates for about 18 hours in RPMI media with 10% FBS. On day 2, the compound was serially diluted in DMSO from 5 mM in 3-fold dilutions, and then diluted 1:125 in RPMI media with 10% FBS. 50 μL/well 2× compound was added to 50 μL/well THP-1 cells (with IFNγ primed) in duplicate in 384 well tissue culture plates. The cells were pre-incubated with compound for 1 hour at 37° C., 5% CO2 before addition of 10 μL/well 11×LPS to give a final concentration of 1 ug/mL LPS. Day 3, after stimulation for 18 hours at 37° C., 5% CO2, the assay plate was centrifuged and 70 μL/well supernatant was harvested. IL-23p19 protein in 70 µL/well of supernatant was measured by sandwich ELISA, and 25 μl/well Cell Titer Glo reagent was added to the remaining cells to measure compound toxicity.
Human IL-23p19 Sandwich ELISA:
Maxisorp immuno ELISA plates were pre-coated with 25 μL/well of anti-IL-23p19 capture antibody (2.5 ug/mL) in PBS overnight at room temperature. After washing with 1×PBST, the plates were blocked using 100 μL/well of 1% BSA in PBS for 2 hours at room temperature. The plates were washed three times with 1×PBST and 70 μL/well supernatant were added. The plates were incubated at room temperature for 2 hours with shaking and washed three times with 1×PBST. 25 μL/well of biotin labeled anti-IL-12(p40/p70) detection antibody (100 ng/mL) in PBS with 1% BSA was added and the plates were incubated at room temperature for 2 hours with shaking. After washing three times with 1×PBST, 25 μL/well of streptavidin-HRP (1:200) in PBS with 1% BSA was added and the plates were incubated at room temperature for 20 minutes with shaking. The plates were washed three times with 1×PBST and 25 μL/well of Super Signal ELISA Pico Chemiluminescent Substrate were added. The plates were read with a luminometer, and the chemiluminescence values were entered into Athena (Rigel) for curve fitting, EC50 calculation, and database storage. […]

SMILES | EC50 ([1]; Table 1, IFNγ 50 ng/ml) [nM] | EC50 ([1]; Table 2, IFNγ 50 ng/ml) [nM] | EC50 ([2]; Table 1) [nM] | EC50 ([2]; Table 2) [nM] | EC50 ([2]; Homo sapiens, Table 1) [nM] | EC50 ([1]; Table 3, IFNγ 50 ng/ml) [nM] | EC50 ([2]; Table 3) [nM]
CCO[C@H]1CC[C@H](n2cc(NC(=O)c3coc(-c4cn[nH]c4)n3)c(-c3nc(F)ccc3F)n2)CC1 [Compound I-9, N-(3-(3,6-difluoropyridin-2-yl)-1-((1r,4r)-4-ethoxycyclohexyl)-1H-pyrazol-4-yl)-2-(1H-pyrazol-4-yl)oxazole-4-carboxamide] | 172 | 172 | 22.8 | 22.8 |  |  | 
O=C(Nc1cn([C@H]2CC[C@H](O)CC2)nc1-c1cnccn1)c1coc(-c2cn[nH]c2)n1 [Compound I-27, N-(1-((1r,4r)-4-hydroxycyclohexyl)-3-(pyrazin-2-yl)-1H-pyrazol-4-yl)-2-(1H-pyrazol-4-yl)oxazole-4-carboxamide] | 64.1 |  |  |  | 15.8 |  | 
O=C(Nc1cn([C@H]2CC[C@H](O)CC2)nc1-c1nc(F)ccc1F)c1coc(-c2cn[nH]c2)n1 [Compound I-11, N-(3-(3,6-difluoropyridin-2-yl)-1-((1r,4r)-4-hydroxycyclohexyl)-1H-pyrazol-4-yl)-2-(1H-pyrazol-4-yl)oxazole-4-carboxamide] | 179 | 179 | 25.4 | 25.4 |  |  | 
CCOCCn1cc(NC(=O)c2coc(-c3cn[nH]c3)n2)c(-c2ccccn2)n1 [Compound I-21, N-(1-(2-ethoxyethyl)-3-(pyridin-2-yl)-1H-pyrazol-4-yl)-2-(1H-pyrazol-4-yl)oxazole-4-carboxamide] |  |  |  |  |  | 170 | 243
CCOC1CCC(n2cc(NC(=O)c3coc(-c4cnn(COP(=O)(O)O)c4)n3)c(-c3nc(F)ccc3F)n2)CC1 (stereo not shown) [Compound I-8, sodium (4-(4-((3-(3,6-difluoropyridin-2-yl)-1-((1r,4r)-4-ethoxycyclohexyl)-1H-pyrazol-4-yl)carbamoyl)oxazol-2-yl)-1H-pyrazol-1-yl)methyl phosphate] | 7640 | 7640 | 187 | 187 |  |  | 

Continued, values first:

EC50 ([1]; Table 1, IFNγ 50 ng/ml) [nM] | EC50 ([1]; Table 2, IFNγ 50 ng/ml) [nM] | EC50 ([2]; Table 1) [nM] | EC50 ([2]; Table 2) [nM] | EC50 ([2]; Homo sapiens, Table 1) [nM] | EC50 ([1]; Table 3, IFNγ 50 ng/ml) [nM] | EC50 ([2]; Table 3) [nM] | SMILES
111 |  |  |  | 474 |  |  | CCO[C@H]1CC[C@H](n2cc(NC(=O)c3coc(-c4cn[nH]c4)n3)c(-c3nc(F)c(F)cc3F)n2)CC1 [Compound I-28, N-(1-((1r,4r)-4-ethoxycyclohexyl)-3-(3,5,6-trifluoropyridin-2-yl)-1H-pyrazol-4-yl)-2-(1H-pyrazol-4-yl)oxazole-4-carboxamide]
417 | 417 | 204 | 204 |  |  |  | CCO[C@H]1CC[C@H](n2cc(NC(=O)c3coc(-c4cn[nH]c4F)n3)c(-c3cnccn3)n2)CC1 [Compound I-32, N-(1-((1r,4r)-4-ethoxycyclohexyl)-3-(pyrazin-2-yl)-1H-pyrazol-4-yl)-2-(5-fluoro-1H-pyrazol-4-yl)oxazole-4-carboxamide]
10.2 | 10.2 | 12 | 12 |  |  |  | C[C@@H]1CN(C2CCC(n3cc(NC(=O)c4coc(-c5cn[nH]c5)n4)c(-c4cccc(C(F)F)n4)n3)CC2)C[C@H](C)O1 (stereo partly drawn) [Compound I-5, N-(3-(6-(difluoromethyl)pyridin-2-yl)-1-((1R,4r)-4-((2R,6S)-2,6-dimethylmorpholino)cyclohexyl)-1H-pyrazol-4-yl)-2-(1H-pyrazol-4-yl)oxazole-4-carboxamide]
143 | 143 | 34.1 | 34.1 |  |  |  | CCO[C@H]1CC[C@H](n2cc(NC(=O)c3coc(-c4cn[nH]c4)n3)c(-c3ncc(F)cc3F)n2)CC1 [Compound I-13, N-(3-(3,5-difluoropyridin-2-yl)-1-((1r,4r)-4-ethoxycyclohexyl)-1H-pyrazol-4-yl)-2-(1H-pyrazol-4-yl)oxazole-4-carboxamide]
 |  |  |  |  | 161 | 400 | O=C(Nc1cn(CCOCC(F)F)nc1-c1ccccn1)c1coc(-c2cn[nH]c2)n1 [Compound I-25, N-(1-(2-(2,2-difluoroethoxy)ethyl)-3-(pyridin-2-yl)-1H-pyrazol-4-yl)-2-(1H-pyrazol-4-yl)oxazole-4-carboxamide]
39.9 |  |  |  | 2.6 |  |  | O=C(Nc1cn([C@H]2C[C@@H](O)C2)nc1-c1cnccn1)c1coc(-c2cn[nH]c2)n1 [Compound I-38, N-(1-((1s,3s)-3-hydroxycyclobutyl)-3-(pyrazin-2-yl)-1H-pyrazol-4-yl)-2-(1H-pyrazol-4-yl)oxazole-4-carboxamide]
